# Laboratory results: publication PMC7714071, “Interaction of amyloid beta with humanin and acetylcholinesterase is modulated by ATP” (FEBS Open Bio, 2020)
# Experiments:
# [1] = tested on: Aβ in A549 cell-conditioned media; test: ELISA, oligomer versus total Aβ in A549 cell-conditioned media; type: cell-based, human; settings: non-depleted A549 media; Fig. 8A
# Description: (§1) Aβ ELISAs were carried out according to previous protocols for determining the oligomeric and monomeric concentrations of Aβ and as we recently reported. Briefly, total Aβ (monomers + oligomers) was measured by two‐site binding ELISAs using the capture 6E10 monoclonal antibody and 4G8‐conjugated biotin as the detection antibody, which recognizes a distinct epitope, then quantitated using streptavidin‐HRP.
# (§2) Using the same samples, oligomerized Aβ was measured by a single‐site ELISA in which antibodies targeting the same primary sequence epitope were used for both capture (4G8) and detection (4G8‐biotin). Only oligomers are detected with this approach since the 4G8‐biotin antibody cannot bind to the captured monomer because the epitope is blocked by the 4G8 capture antibody. Therefore, only oligomeric or multimeric Aβ containing additional exposed 4G8 epitopes, not engaged by the capture antibody, are reported by the streptavidin–HRP. The amount of the monomer was then estimated as the difference between the concentration of total Aβ and the concentration of the oligomer.
# (§3) Conditioned media were immunodepleted (ID) according to the methods previously described and our recently published report. Briefly, specific antibodies were bound to ELISA wells overnight (1 : 1000 dilution). The wells were then blocked and washed, then 300 μL of the conditioned medium (0.5 μg·μL^−1) treated as indicated, 72 h postserum starvation, was incubated with the antibodies bound to ELISA wells for 24 h. The ID media were then carefully removed and analyzed for the presence of the target protein or peptide by ELISA. The same amount of protein (3 µL of 600 µg·mL^−1 total protein) of each sample was analyzed in the experiments. Significant depletion (95–100%) was observed upon using each of the antibodies employed in this study.
# (§4) Both epitopes recognized by the 6E10 and 4G8 antibodies have been previously shown to be exposed in Aβ aggregates. […] To determine the effect of ID of AChE or HN on this ratio in the absence or presence of added ATP, 0.2 × 10^5 cells per well were seeded in 96‐well plates in 10% FBS‐supplemented media. The next day, the cells were incubated in serum‐free medium for 72 h, then ID of AChE or HN as described in Materials and methods. The antibodies 6E10 or 4G8 were bound (1 : 1000 dilution) to ELISA wells (Fig. 8). The wells were blocked, and then incubated with 300 μL of the ID medium (0.5 μg·μL^−1). Biotin‐4G8 was then added and the signal processed as described in Materials and methods section. Fold change relative to controls using anti‐6E10 or anti‐4G8 antibodies incubated with 300 μL of the medium not incubated with cells was calculated.
# (§5) Cells (0.2 × 10^5) were grown in 10% FBS‐supplemented media for 24 h. The cells were then incubated in serum‐free medium for 72 h without or with ATP and the media collected and ID from either HN or AChE as described in Materials and methods section. The antibodies 6E10 or 4G8 were bound (1 : 1000 dilution) to ELISA wells. The wells were blocked, and then incubated with 300 μL of the control and ID medium (0.5 μg·μL^−1). Biotin‐4G8 was then added and the signal processed as described in Materials and methods section. Fold change relative to controls using anti‐6E10 and anti‐4G8 antibodies and 300 μL of the medium not incubated with cells was calculated. Data were processed using the […] 8.4.3 software. The graphs summarize the results expressed as means ± SD of three separate experiments, each performed in triplicate. […]
# [2] = tested on: Aβ in H1299 cell-conditioned media; test: ELISA, oligomer versus total Aβ in H1299 cell-conditioned media; type: cell-based, human; settings: non-depleted H1299 media; Fig. 8B
# Description: as §1, §2, §3, §4, §5
# [3] = tested on: human lung adenocarcinoma xenografts; settings: direct injection into xenografts; cited from earlier work
# Source text: A rapidly growing body of evidence has recently steadily emerged showing that AD patients might have a reduced risk and some protection against certain cancers. […] Experimental evi ...
# [4] = tested on: Aβ; settings: physiological intracellular concentrations, enhanced by magnesium; cited from earlier work
# Source text: Soluble oligomers of proteins implicated in different diseases are primarily thought to be the main toxic form as opposed to the larger fibrillar assemblies. Aβ regions containing Tyr and Ser (H6DSGY10 and G25SNKG29) (Fig. 1) along with post‐translational modifications of these regions, have been implicated in misfolding, oligomerization, or fibril formation of Aβ [5, 10, 11, 16, 41]. […] In addition to ATP, the glycosaminoglycan, heparan sulfate (HS), has been previously reported to i ... || Access to the central domain of Aβ (residues 17–24) flanked by Lys‐16 and Lys‐28, known to be a critical structural element in fibrillar Aβ aggregates, might be regulated by binding of AChE and HN to their overlapping binding sites on Aβ. […] Moreover, we s ...
# [5] = ELISA, binding of biotinylated-Aβ to immobilised HS; set-up: species or system bovine; settings: HS 100 nM on wells, increasing biotinylated-Aβ; single binding site model; mean ± SD of three independent experiments in triplicate; Fig. 2A
# Description: ELISAs were carried out as we previously reported. Nunc MaxiSorp 96‐well flat bottom plate (Thermo Fisher) wells were coated with samples as indicated. The plates were incubated overnight at 4 °C on a shaker to allow binding of the samples to the plate wells. After the incubation, the wells were washed 4× with TBST, filled with 400 µL blocking buffer (110 mM KCl, 5 mM NaHCO3, 5 mM MgCl2, 1 mM EGTA, 0.1 mM CaCl2, 20 mM HEPES, 1% BSA, pH 7.4), and incubated with shaking overnight at 4 °C. The wells were then washed 4× with TBST, and 100 µL of sample at the desired concentration was added to each well and incubated with shaking overnight at 4 °C. TBST was then used to wash the wells 4× before proceeding in one of two ways: (a) biotinylated samples were analyzed by adding 100 µL streptavidin–HRP conjugate in TBST (1 : 2500 dilution) to the samples followed by incubation for 3 h at RT on a shaker, or (b) samples without biotin were analyzed by adding 100 µL TBST containing the primary antibody as per the manufacturer's recommendation, incubating for 3 h at RT on a shaker, followed by washing the wells 4× with TBST. […] The reaction was stopped with 100 µL 2 M H2SO4 after incubating at RT for 0.5–15 min, resulting in a yellow color change, measured by absorbance at 450 nm. […] Statistical analysis was determined by the […] […] Data were expressed as the mean ± SD. […]
# [6] = tested on: Aβ42; settings: in brains of AD patients; cited from earlier work
# Source text: Almost all types of cells produce amyloid beta (Aβ), a peptide well recognized for its role in the development and progression of different stages of Alzheimer's disease (AD). The Aβ peptide is ~ 4 kDa and derived from the sequential processing of the higher molecular weight amyloid precursor protein by two membrane‐bound endoproteases, β‐ and γ‐secretase. Different C‐terminal Aβ heterogeneity results from processing by γ‐secretase, where Aβ40 represents the most abundant isoform (~ 90%) as compared to Aβ42 (~ 10%). Self‐assembled Aβ40/42 peptides into amyloid fib ... || Amino acid residues involved in direct interactions between HN and Aβ40 were identified previously by molecular modeling. The specific epitopes at the binding interface between HN and Aβ40 were identified, by proteolytic epitope excision and extraction in addition to affinity–mass spectrometric data analysis, to be HN (5–15) and Aβ (17–28). […] Inhibiting the 17–28 region of Aβ reduced aggregation of the neurotoxic amyloid fibrils and related cytotoxicity in SH‐SY5Y, a human neuroblastoma cell ... || Acetylcholinesterase (AChE) is an enzyme known for its role in terminating acetylcholine‐mediated neurotransmission at the synaptic cleft. The majority of the cortical AChE in the Alzheimer's brain is mainly associated with the amyloid core of senile plaques. […]
# [7] = tested on: Aβ40; settings: versus Aβ42; cited from earlier work
# Source text: Almost all types of cells produce amyloid beta (Aβ), a peptide well recognized for its role in the development and progression of different stages of Alzheimer's disease (AD). The Aβ peptide is ~ 4 kDa and derived from the sequential processing of the higher molecular weight amyloid precursor protein by two membrane‐bound endoproteases, β‐ and γ‐secretase. Different C‐terminal Aβ heterogeneity results from processing by γ‐secretase, where Aβ40 represents the most abundant isoform (~ 90%) as compared to Aβ42 (~ 10%). Self‐assembled Aβ40/42 peptides into amyloid fib ... || Humanin (HN) is a secreted 21‐ to 24‐amino acid mitochondrial‐derived peptide. Certain amino acid residues in HN have been identified to be involved in different functions, including binding to Aβ [55, 56]. […] HN was identified previously as a binding partner of Aβ, likely modulating its aggregation pathways and counteracting its deleterious effects. […] The specific epitopes at the binding interface between HN and Aβ40 were identified, by proteolytic epitope excision and extraction in addition to affinity–mass spectrometric data analysis, to be HN (5–15) and Aβ (17–28). […] Inhibiting the 17–28 region of Aβ reduced aggregation of the neurotoxic amyloid fibrils and related cytotoxicity in SH‐SY5Y, a human neuroblastoma cell ... || (+ 1 further places)
# [8] = tested on: Aβ cytotoxicity; settings: cited from earlier work
# Source text: Almost all types of cells produce amyloid beta (Aβ), a peptide well recognized for its role in the development and progression of different stages of Alzheimer's disease (AD). The Aβ peptide is ~ 4 kDa and derived from the sequential processing of the higher molecular weight amyloid precursor protein by two membrane‐bound endoproteases, β‐ and γ‐secretase. Different C‐terminal Aβ heterogeneity results from processing by γ‐secretase, where Aβ40 represents the most abundant isoform (~ 90%) as compared to Aβ42 (~ 10%). Self‐assembled Aβ40/42 peptides into amyloid fib ... || Soluble oligomers of proteins implicated in different diseases are primarily thought to be the main toxic form as opposed to the larger fibrillar assemblies. Aβ regions containing Tyr and Ser (H6DSGY10 and G25SNKG29) (Fig. 1) along with post‐translational modifications of these regions, have been implicated in misfolding, oligomerization, or fibril formation of Aβ [5, 10, 11, 16, 41]. […] Aβ proteins a ... || Acetylcholinesterase (AChE) is an enzyme known for its role in terminating acetylcholine‐mediated neurotransmission at the synaptic cleft. The majority of the cortical AChE in the Alzheimer's brain is mainly associated with the amyloid core of senile plaques. […]
# [9] = tested on: Aβ; settings: cited from earlier work
molecule,measurement,setting,value
amyloid beta [Aβ],oligomer relative to total Aβ,[1],~ 63%
same,oligomer relative to total Aβ,[2],~ 48%
same,tumor growth,[3],suppress tumor growth in mice
Nc1ncnc2c1ncn2[C@@H]1O[C@H](COP(=O)(O)OP(=O)(O)O)[C@@H](O)[C@H]1O [ADP],effect on misfolding of Aβ,[4],reduced misfolding of Aβ
Aβ42,binding affinity of Aβ for HS,[5],comparable affinities
same,aggregation kinetics of Aβ42,[6],faster aggregation kinetics
Aβ40,binding affinity of Aβ for HS,[5],comparable affinities
same,aggregation kinetics of Aβ40,[7],lower aggregation kinetics
same,toxicity relative to Aβ42,[8],lower toxicity
biotinylated‐HN,binding of biotinylated-HN to Aβ versus HN,[9],indistinguishable
